Measurements as given in ChEMBL document CHEMBL4382202, “1-(2-Hydroxybenzoyl)-thiosemicarbazides are promising antimicrobial agents targeting d-alanine-d-alanine ligase in bacterio” (Eur J Med Chem, 2018).
Calls of active or inactive are those of the source. The calls are words filed in the database; no cut-off is given here.

Experiments:
Escherichia coli = experiment: Inhibition of Escherichia coli DNA topoisomerase 4 at 10 uM using interlinked kDNA as substrate after 1 hr by ethidium bromide staining-based agarose gel electrophoresis relative to control
[1] = target: Indoleamine 2,3-dioxygenase 1 (Homo sapiens) (UniProt P14902); experiment: Inhibition of human IDO at 10 uM using L-tryptophan as substrate after 30 mins by Ehrlich's reagent based assay relative to control
[2] = target: T1, D-alanine--D-alanine ligase (Enterococcus faecalis (strain ATCC 700802 / V583)) (UniProt Q47758); experiment: Inhibition of Enterococcus faecalis JH2-2 C-terminal 6His-tagged DdlB expressed in Escherichia coli LMG194 at 10 uM preincubated for 30 mins followed by substrate addition and measured after 20 mins by Biomol Green reagent assay relative to control
T1 sequence (whole entry): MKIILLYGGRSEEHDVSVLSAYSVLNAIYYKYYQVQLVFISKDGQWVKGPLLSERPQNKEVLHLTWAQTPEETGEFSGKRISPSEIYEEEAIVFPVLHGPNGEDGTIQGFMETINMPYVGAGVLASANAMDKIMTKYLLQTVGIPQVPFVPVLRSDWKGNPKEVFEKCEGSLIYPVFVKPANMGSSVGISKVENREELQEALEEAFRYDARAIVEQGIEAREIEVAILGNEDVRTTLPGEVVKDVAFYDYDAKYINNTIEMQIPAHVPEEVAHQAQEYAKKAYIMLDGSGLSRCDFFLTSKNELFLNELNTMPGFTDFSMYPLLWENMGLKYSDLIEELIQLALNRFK

[3] = target: GABA-A receptor; alpha-1/beta-2/gamma-2 (Homo sapiens) (UniProt P14867+P47870+P18507); experiment: Displacement of [3H]muscimol from recombinant human GABAalpha1beta2gamma2 at 10 uM after 120 mins by scintillation counting method relative to control; assay type: protein-complex assay
[4] = target: Secretory phospholipase A2 (Homo sapiens) (UniProt Q5R387+Q9NZK7+P14555+Q9BZM2+Q9UNK4+P39877+O15496+P04054+Q9NZ20+Q9BZM1+Q9BX93); experiment: Inhibition of human sPLA2 at 10 uM relative to control; assay type: protein assay
[5] = target: Topoisomerase IV (Staphylococcus aureus) (UniProt P0C1U9+P0C1S7); experiment: Inhibition of Staphylococcus aureus DNA topoisomerase 4 at 10 uM using interlinked kDNA as substrate after 1 hr by ethidium bromide staining-based agarose gel electrophoresis relative to control; assay type: protein-complex assay
[6] = target: Peroxisome proliferator-activated receptor alpha (Homo sapiens) (UniProt Q07869); experiment: Displacement of [3H]WY 14643 from human recombinant PPARalpha receptor at 10 uM at 10 uM after 120 mins by scintillation counting analysis relative to control
[7] = target: T1, D-alanine--D-alanine ligase (Enterococcus faecalis (strain ATCC 700802 / V583)); experiment: Inhibition of Enterococcus faecalis JH2-2 C-terminal 6His-tagged DdlB expressed in Escherichia coli LMG194 assessed as Vmax/Km of D-Ala at 1 uM by Biomol Green reagent assay (reference value: 11.02 /min)
[8] = target: Prostaglandin G/H synthase 1 (Homo sapiens) (UniProt P23219); experiment: Inhibition of human recombinant COX1 at 10 uM using arachidonic acid as substrate after 3 mins by fluorimetric analysis relative to control
[9] = target: 5-hydroxytryptamine receptor 1A (Homo sapiens) (UniProt P08908); experiment: Displacement of [3H]8-OH-DPAT from recombinant human 5-HT1A receptor at 10 uM after 60 mins by scintillation counting analysis relative to control
[10] = target: Carbonic anhydrase 2 (Homo sapiens) (UniProt P00918); experiment: Inhibition of human carbonic anhydrase 2 at 10 uM using 4-nitrophenyl acetate as substrate after 20 mins by spectrophotometric analysis relative to control
Pseudomonas aeruginosa = experiment: Antibacterial activity against Pseudomonas aeruginosa PAO1 after 18 to 24 hrs by microdilution assay; assay type: functional, organism-based
Staphylococcus aureus [11] = experiment: Bactericidal activity against Staphylococcus aureus ATCC 25923 assessed as reduction of bacterial load at 2 to 5 times MIC after 24 hrs by time kill assay; assay type: functional, organism-based
[12] = target: Arginase-1 (Homo sapiens) (UniProt P05089); experiment: Inhibition of human recombinant Arg1 at 10 uM using L-arginine as substrate after 5 mins in presence of [guanidino-14C]-L-arginine by liquid scintillation counting analysis relative to control
[13] = target: Angiotensin-converting enzyme (Homo sapiens) (UniProt P12821); experiment: Inhibition of human recombinant ACE at 10 uM using Abz-FRK(Dnp)-P-OH as substrate after 30 mins by fluorimetric analysis relative to control
[14] = target: T1, D-alanine--D-alanine ligase (Enterococcus faecalis (strain ATCC 700802 / V583)); experiment: Inhibition of Enterococcus faecalis JH2-2 C-terminal 6His-tagged DdlB expressed in Escherichia coli LMG194 assessed as Vmax/Km of D-Ala at 10 uM by Biomol Green reagent assay (reference value: 11.02 /min)
Klebsiella pneumoniae = experiment: Antibacterial activity against Klebsiella pneumoniae ATCC 700603 after 18 to 24 hrs by microdilution assay; assay type: functional, organism-based
[15] = target: Cannabinoid receptor 1 (Homo sapiens) (UniProt P21554); experiment: Displacement of [3H]CP 55940 from human recombinant CB1 receptor at 10 uM after 120 mins by scintillation counting analysis relative to control
Bacillus cereus = experiment: Inhibition of Bacillus cereus beta-lactamase at 10 uM using nitrocefin as substrate preincubated for 15 mins followed by substrate addition and measured after 60 mins by spectrophotometric analysis relative to control
[16] = target: L-lactate dehydrogenase A chain (Homo sapiens) (UniProt P00338); experiment: Inhibition of human recombinant full-length LDHA at 10 uM using sodium pyruvate as substrate after 60 mins by resazurin dye-based assay relative to control
[17] = target: Acetylcholinesterase (Homo sapiens) (UniProt P22303); experiment: Inhibition of human recombinant acetylcholinesterase at 10 uM using acetylthiocholine as substrate after 30 mins by spectrophotometric analysis relative to control
[18] = target: Muscarinic acetylcholine receptor M1 (Homo sapiens) (UniProt P11229); experiment: Displacement of […] from human recombinant M1 receptor at 10 uM after 60 mins by scintillation counting analysis relative to control
[19] = target: T1, D-alanine--D-alanine ligase (Enterococcus faecalis (strain ATCC 700802 / V583)); experiment: Inhibition of Enterococcus faecalis JH2-2 C-terminal 6His-tagged DdlB expressed in Escherichia coli LMG194 assessed as Vmax/Km of ATP at 1 uM by Biomol Green reagent assay (reference value: 0.3 /min)
Staphylococcus aureus [20] = experiment: Inhibition of Ddl in Staphylococcus aureus ATCC 25923 assessed as increase in [D-Ala]/[D-Ala-D-Ala] ratio at 2 times MIC after 30 mins by LC-MS/MS analysis
[21] = target: Monoglyceride lipase (Homo sapiens) (UniProt Q99685); experiment: Inhibition of human MAGL at 10 uM relative to control
[22] = target: T1, D-alanine--D-alanine ligase (Enterococcus faecalis (strain ATCC 700802 / V583)); experiment: Inhibition of Enterococcus faecalis JH2-2 C-terminal 6His-tagged DdlB expressed in Escherichia coli LMG194 assessed as Vmax/Km of ATP at 10 uM by Biomol Green reagent assay (reference value: 0.3 /min)
[23] = target: cGMP-inhibited 3',5'-cyclic phosphodiesterase 3A (Homo sapiens) (UniProt Q14432); experiment: Inhibition of human recombinant PDE3A using [3H]cAMP at 10 uM after 20 mins by scintillation counting analysis relative to control
Chain of cGMP-inhibited 3',5'-cyclic phosphodiesterase 3A (Homo sapiens) (Q14432 whole entry): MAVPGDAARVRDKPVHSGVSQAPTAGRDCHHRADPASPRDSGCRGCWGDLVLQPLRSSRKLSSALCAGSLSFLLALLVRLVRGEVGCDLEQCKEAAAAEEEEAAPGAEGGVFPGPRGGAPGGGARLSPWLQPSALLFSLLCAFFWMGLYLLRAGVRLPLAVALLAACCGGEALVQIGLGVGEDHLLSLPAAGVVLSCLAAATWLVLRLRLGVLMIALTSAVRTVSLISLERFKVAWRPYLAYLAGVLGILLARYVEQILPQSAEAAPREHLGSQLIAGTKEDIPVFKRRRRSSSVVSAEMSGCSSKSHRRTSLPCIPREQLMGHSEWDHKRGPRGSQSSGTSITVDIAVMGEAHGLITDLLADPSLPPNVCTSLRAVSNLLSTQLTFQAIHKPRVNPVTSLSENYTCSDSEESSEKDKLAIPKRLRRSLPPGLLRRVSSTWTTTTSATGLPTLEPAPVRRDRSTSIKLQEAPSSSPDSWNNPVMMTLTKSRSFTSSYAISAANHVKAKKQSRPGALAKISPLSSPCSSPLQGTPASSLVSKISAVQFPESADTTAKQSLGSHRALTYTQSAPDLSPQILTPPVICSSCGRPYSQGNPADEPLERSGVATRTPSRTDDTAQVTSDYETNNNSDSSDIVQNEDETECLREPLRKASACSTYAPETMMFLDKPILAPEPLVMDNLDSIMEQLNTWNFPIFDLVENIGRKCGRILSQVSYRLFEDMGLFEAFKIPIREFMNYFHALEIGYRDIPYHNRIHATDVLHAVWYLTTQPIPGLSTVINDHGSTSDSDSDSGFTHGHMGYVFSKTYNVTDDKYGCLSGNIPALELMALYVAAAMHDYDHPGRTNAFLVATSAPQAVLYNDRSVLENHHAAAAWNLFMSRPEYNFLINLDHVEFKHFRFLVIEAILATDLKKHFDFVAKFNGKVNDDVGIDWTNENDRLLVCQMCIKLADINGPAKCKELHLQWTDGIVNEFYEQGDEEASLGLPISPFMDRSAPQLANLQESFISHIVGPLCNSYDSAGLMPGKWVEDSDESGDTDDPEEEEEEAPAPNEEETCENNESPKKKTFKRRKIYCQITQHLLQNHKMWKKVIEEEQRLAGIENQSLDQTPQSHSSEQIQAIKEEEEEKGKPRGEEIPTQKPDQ

Chain of Prostaglandin G/H synthase 1 (Homo sapiens) (P23219 whole entry): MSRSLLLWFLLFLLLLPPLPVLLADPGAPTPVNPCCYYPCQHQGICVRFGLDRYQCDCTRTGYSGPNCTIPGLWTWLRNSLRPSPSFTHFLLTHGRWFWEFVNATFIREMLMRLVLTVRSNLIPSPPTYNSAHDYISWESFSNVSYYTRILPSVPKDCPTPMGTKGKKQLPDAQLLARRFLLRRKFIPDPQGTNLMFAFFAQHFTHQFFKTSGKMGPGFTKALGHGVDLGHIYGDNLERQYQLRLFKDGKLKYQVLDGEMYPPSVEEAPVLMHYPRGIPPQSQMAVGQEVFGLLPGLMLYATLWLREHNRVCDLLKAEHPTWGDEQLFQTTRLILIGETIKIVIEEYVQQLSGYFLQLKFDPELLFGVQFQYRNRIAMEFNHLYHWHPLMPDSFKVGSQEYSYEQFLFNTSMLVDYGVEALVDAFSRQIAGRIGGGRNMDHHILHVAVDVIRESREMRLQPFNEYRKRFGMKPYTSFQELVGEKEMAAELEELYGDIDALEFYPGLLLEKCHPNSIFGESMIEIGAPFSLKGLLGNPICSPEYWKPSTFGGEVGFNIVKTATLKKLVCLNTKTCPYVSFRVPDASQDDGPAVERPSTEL
Chain of Peroxisome proliferator-activated receptor alpha (Homo sapiens) (Q07869 whole entry): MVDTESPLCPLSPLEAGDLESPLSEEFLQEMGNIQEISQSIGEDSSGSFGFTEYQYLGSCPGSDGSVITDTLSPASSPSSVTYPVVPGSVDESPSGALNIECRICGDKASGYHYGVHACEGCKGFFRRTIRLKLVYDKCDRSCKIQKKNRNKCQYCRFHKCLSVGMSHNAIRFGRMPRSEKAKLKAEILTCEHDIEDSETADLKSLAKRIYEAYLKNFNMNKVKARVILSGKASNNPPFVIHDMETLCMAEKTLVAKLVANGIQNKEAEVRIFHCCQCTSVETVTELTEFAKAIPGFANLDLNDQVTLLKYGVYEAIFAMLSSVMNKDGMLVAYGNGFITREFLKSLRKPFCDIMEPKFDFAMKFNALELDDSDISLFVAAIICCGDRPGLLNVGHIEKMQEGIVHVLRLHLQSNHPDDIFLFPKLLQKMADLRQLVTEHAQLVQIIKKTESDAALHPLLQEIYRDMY
Chain of Muscarinic acetylcholine receptor M1 (Homo sapiens) (P11229 whole entry): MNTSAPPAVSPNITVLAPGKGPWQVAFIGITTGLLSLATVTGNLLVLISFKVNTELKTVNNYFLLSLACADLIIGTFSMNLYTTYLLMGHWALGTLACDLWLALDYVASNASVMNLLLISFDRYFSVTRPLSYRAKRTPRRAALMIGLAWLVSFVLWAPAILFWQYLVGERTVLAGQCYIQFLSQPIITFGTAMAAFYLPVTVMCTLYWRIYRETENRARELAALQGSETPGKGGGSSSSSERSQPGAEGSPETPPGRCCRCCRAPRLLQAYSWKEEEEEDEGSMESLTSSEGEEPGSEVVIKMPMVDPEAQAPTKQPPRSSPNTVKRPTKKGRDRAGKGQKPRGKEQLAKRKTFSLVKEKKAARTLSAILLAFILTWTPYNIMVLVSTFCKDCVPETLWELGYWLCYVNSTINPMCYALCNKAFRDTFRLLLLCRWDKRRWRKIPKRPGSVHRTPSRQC
Chain of Monoglyceride lipase (Homo sapiens) (Q99685 whole entry): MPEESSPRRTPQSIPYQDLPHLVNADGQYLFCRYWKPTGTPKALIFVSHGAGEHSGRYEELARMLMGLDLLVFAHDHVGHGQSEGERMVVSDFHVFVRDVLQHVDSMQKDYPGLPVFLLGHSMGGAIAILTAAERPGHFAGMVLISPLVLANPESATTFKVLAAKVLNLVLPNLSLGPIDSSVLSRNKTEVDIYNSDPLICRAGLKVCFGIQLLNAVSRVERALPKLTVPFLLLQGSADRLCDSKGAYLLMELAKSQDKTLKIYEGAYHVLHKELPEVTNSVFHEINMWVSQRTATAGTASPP
Chain of Angiotensin-converting enzyme (Homo sapiens) (P12821 whole entry): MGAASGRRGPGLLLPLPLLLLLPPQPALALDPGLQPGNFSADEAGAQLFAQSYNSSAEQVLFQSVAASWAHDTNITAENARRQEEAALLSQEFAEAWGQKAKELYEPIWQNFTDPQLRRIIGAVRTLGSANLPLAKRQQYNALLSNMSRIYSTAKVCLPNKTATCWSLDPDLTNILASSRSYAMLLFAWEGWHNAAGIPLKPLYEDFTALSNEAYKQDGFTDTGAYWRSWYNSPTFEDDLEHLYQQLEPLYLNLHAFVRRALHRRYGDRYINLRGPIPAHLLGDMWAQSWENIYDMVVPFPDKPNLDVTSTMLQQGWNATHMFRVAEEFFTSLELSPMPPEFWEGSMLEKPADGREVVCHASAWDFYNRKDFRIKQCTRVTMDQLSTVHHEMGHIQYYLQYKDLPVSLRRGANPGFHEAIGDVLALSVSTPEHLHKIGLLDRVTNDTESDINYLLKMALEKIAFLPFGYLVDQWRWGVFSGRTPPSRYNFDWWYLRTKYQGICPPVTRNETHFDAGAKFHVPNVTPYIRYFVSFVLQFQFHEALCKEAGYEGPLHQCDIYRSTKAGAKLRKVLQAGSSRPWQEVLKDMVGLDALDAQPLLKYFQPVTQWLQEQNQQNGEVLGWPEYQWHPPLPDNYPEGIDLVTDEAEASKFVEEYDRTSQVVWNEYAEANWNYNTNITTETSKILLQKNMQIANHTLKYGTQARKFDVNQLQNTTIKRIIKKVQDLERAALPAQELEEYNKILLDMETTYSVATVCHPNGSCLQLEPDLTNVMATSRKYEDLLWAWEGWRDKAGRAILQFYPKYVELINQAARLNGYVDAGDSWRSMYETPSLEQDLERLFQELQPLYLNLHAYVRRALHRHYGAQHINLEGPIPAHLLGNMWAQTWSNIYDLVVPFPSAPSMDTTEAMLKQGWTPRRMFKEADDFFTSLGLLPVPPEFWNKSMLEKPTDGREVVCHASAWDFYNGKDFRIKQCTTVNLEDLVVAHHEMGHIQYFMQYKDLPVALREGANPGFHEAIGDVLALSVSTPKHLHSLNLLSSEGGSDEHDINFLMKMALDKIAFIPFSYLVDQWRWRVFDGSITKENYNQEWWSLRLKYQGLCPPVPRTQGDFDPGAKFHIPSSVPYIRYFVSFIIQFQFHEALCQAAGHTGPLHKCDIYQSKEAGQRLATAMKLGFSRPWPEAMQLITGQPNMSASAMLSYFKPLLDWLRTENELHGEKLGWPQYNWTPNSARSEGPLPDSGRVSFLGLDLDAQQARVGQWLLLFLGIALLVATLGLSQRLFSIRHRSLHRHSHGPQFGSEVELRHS
Chain of Cannabinoid receptor 1 (Homo sapiens) (P21554 whole entry): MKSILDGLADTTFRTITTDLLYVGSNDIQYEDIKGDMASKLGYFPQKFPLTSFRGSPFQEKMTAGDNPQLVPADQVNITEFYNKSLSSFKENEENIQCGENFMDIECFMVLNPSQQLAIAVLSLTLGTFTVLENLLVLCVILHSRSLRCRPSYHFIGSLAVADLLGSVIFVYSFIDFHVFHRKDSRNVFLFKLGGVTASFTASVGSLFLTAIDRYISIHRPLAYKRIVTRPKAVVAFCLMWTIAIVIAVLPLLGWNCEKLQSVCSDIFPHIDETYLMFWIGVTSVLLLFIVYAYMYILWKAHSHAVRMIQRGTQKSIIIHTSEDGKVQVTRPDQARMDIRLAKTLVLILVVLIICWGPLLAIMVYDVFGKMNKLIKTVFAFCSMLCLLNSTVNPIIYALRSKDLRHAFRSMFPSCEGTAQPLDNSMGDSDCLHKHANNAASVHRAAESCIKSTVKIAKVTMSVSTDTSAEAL

SMILES: O=C(NNC(=S)Nc1ccc(Cl)c(Cl)c1)c1ccccc1O
- inhibition (Escherichia coli): < 30%
- inhibition [1]: < 30%
- inhibition [2]: > 30%
- inhibition [3]: < 30%
- inhibition [4]: < 30%
- inhibition [5]: < 30%
- inhibition [6]: < 30%
- Vmax/Km [7]: 6.93 min⁻¹
- inhibition [8]: < 30%
- inhibition [9]: < 30%
- inhibition [10]: < 30%
- MIC (Pseudomonas aeruginosa): inactive
- Activity (Staphylococcus aureus [11]): Active
- inhibition [12]: < 30%
- inhibition [13]: < 30%
- Vmax/Km [14]: 4.69 min⁻¹
- MIC (Klebsiella pneumoniae): inactive
- inhibition [15]: < 30%
- inhibition (Bacillus cereus): < 30%
- inhibition [16]: < 30%
- inhibition [17]: < 30%
- inhibition [18]: < 30%
- Vmax/Km [19]: 0.33 min⁻¹
- inhibition (Staphylococcus aureus [20]): Active
- inhibition [21]: < 30%
- Vmax/Km [22]: 0.1 min⁻¹
- inhibition [23]: < 30%
